Tests used:
Aspergillus flavus = assay: Expected efficacy of antifungal agents; conditions: expected efficacy against Aspergillus flavus
Candida species = assay: Expected efficacy of antifungal agents; conditions: expected efficacy against Candida species
[1] = tested on: Trichophyton mentagrophytes; assay: Expected efficacy of antifungal agents; conditions: expected efficacy against Trichophyton mentagrophytes
Trichophyton rubrum = assay: Expected efficacy of antifungal agents; conditions: expected efficacy against Trichophyton rubrum
[2] = tested on: Paracoccidioides brasiliensis; assay: Expected efficacy of antifungal agents; conditions: expected efficacy against Paracoccidioides brasiliensis
Aspergillus fumigatus = assay: Expected efficacy of antifungal agents; conditions: expected efficacy against Aspergillus fumigatus
Blastomyces dermatitidis = assay: Expected efficacy of antifungal agents; conditions: expected efficacy against Blastomyces dermatitidis
Sporothrix schenckii = assay: Expected efficacy of antifungal agents; conditions: expected efficacy against Sporothrix schenckii
Cryptococcus neoformans = assay: Expected efficacy of antifungal agents; conditions: expected efficacy against Cryptococcus neoformans
Coccidioides immitis = conditions: expected efficacy against Coccidioides immitis
Histoplasma duboisii = conditions: expected efficacy against Histoplasma duboisii

Measured: Efficacy

CCC(C)n1ncn(-c2ccc(N3CCN(c4ccc(OC[C@H]5CO[C@](Cn6cncn6)(c6ccc(Cl)cc6Cl)O5)cc4)CC3)cc2)c1=O (mixture of isomers) [Itraconazole]
yes: all assays above
